# Source: article PMC11798738, “Targeting ASK1 by CS17919 alleviates kidney‐ and liver‐related diseases in murine models” (Animal Models and Experimental Medicine, 2024)
# Marks after values point to notes of the source that are not given here.
# How the values were obtained:
# HUH7 = experiment: MTS cytotoxicity assay, HUH7; type: cell-based, human; conditions: 72 h
# Method: (§1) Human embryonic kidney cells (HEK‐293A), human hepatocellular carcinoma cells (HUH7), human embryonic liver diploid cells (CCC‐HEL‐1) and human embryonic lung cells (MRC‐5) were selected for the cytotoxicity study of both drugs, using the MTS assay protocol. Cells were cultured at 37°C with 5% CO2 using an appropriate medium. […] After 72 h of incubation, 30 μL of MTS solution was added to each well, and the cells were then incubated for 2–4 h in the dark. The absorbance value of each well at 490 nm was measured using an enzymatic plate reader and the IC50 for each drug and each cell line was calculated. Cell viability and cytoxicity experiments were repeated three times.
# NASH mouse model [1] = experiment: CCL4- and HFD-induced NASH mouse model; type: in vivo, C57BL/6J mice; conditions: data not shown; model group 5/9
# NASH mouse model [2] = experiment: CCL4- and HFD-induced NASH mouse model; type: in vivo, C57BL/6J mice; conditions: CS17919 20 mg/kg
# Method: 41 C57BL/6J mice, male, 6–8 weeks of age, were purchased from Chengdu Dossy Experimental Animal Co. (Chengdu, China), 9 of which were assigned in the control group and fed a chow diet. The other 32 mice were fed a HFD (D12429, Research diet, USA). After 8 weeks of feeding, these mice with HFD were subcutaneously injected with CCL4 (0.1 mL/kg) twice a week. These mice were then randomly subdivided into 4 groups according to serum ALT and AST at week 12: Model (n = 8), CS17919 (n = 8), CS27109 (n = 8), and Combination (n = 8). Both the control and model groups were given the solvent mentioned above, administered orally twice a day, while CS17919 was administered twice a day by gavage at a dose of 20 mg/kg and CS27109 was administered twice a day by gavage at a dose of 10 mg/kg for 4 weeks. The body weight of each mouse was measured every 3 days during the drug intervention. All animals were fasted overnight after the last drug administration and blood was collected to isolate serum for biochemical tests including AST, ALT, TG, TC, HDL‐c, and LDL‐c. The liver of each mouse was removed, the right lobe of which was fixed in 10% formalin solution for pathological study.
# H&E staining was applied to determine scores for liver steatosis, ballooning and inflammation in the NASH model. Thin 4 μm paraffin sections of each sample were used to assess liver histology, following a standard protocol. Paraffin sections were deparaffinized and placed in Hematoxylin staining solution for 3–8 min before using tap water to elute excess Hematoxylin. Sections were stained in Eosin stain for about 1–3 min and rinsed with tap water. Finally, the slices were dehydrated and sealed. Score ranges were 0–3 for liver steatosis, 0–2 for ballooning and 0–12 for inflammation (which included scores of 0–3 for portal inflammation, 0–3 for lobular inflammation, 0–3 for piecemeal necrosis, and 0–3 for bridging necrosis).
# Sirius Red staining was applied to determine liver fibrosis in the NASH model. Thin 4 μm paraffin sections of each sample were used in this study followed the standard procedure. Sections were first stained with Hematoxylin for 5–10 min, then washed and stained with Sirius Red stain about 15–30 min. Finally, the sections were rinsed and sealed. Image‐Pro Plus 6.0 was used for analyzing the area of liver fibrosis and the percentage of the fibrosis area in each section was calculated.
# CCC‐HEL‐1 = experiment: MTS cytotoxicity assay, CCC-HEL-1; type: cell-based, human; conditions: 72 h
# Method: as §1
# CYP 2C8 = CYP 2C8 (Homo sapiens, UniProt P10632); experiment: CYP inhibition in vitro; type: in vitro ADME
# [3] = Metabolic stability in liver microsomes; type: in vitro ADME; conditions: Rat
# CYP3A4 = CYP3A4 (Homo sapiens, UniProt P08684)
# UUO mouse model = UUO mouse model of kidney injury and fibrosis; type: in vivo, C57BL/6J mice
# Method: 55 C57BL/6J mice, male, 6–8 weeks old were purchased from Chengdu Pharmachem Biotechnology Co. (Chengdu, China) and randomly divided into 5 groups according to their body weight: Sham (n = 10), Model (n = 15), CS17919L (10 mg/kg, n = 10), CS17919H (60 mg/kg, n = 10), and GS‐4997 (30 mg/kg, n = 10). The mice were anesthetized and fixed on the operating table, and the abdominal cortex and muscles were cut in the middle of the right side of the abdomen, and the ureter was searched for along the renal hilum. The ureter was separated using a glass split‐needle and ligated at the opening of the renal pelvis and the upper 1/3 of the ureter, and the ureter was cut between the two ligatures. Finally, the muscle and skin were closed with consecutive sutures, and animals were kept under observation until they awoke. Both the Sham and the Model group received solvent (0.2% CMC‐Na + 0.1% Tween‐80) orally twice daily. CS17919 and GS‐4997 were administered by gavage twice daily at the corresponding doses for 11 days. All treatments were started one day before surgical operation. All mice were sacrificed one day after administration with overnight fasting. Blood was collected, and serum was isolated for the analysis of urea nitrogen and creatinine. The kidney of each mouse was removed, weighed and fixed in 10% formalin solution for pathological study.
# Masson staining was applied to determine kidney fibrosis in the UUO model. Thin 4 μm paraffin sections of each sample were used in this study, which followed the standard procedure. The sections were stained with Hematoxylin staining solution for 5–10 min and then washed, followed by staining with Ponceau S‐acid fuchsin stain for around 5–10 min. The sections were treated with 1% phosphomolybdic acid and Aniline Blue solution, and finally dehydrated stepwise in alcohol and sealed. VIS7.0 software was used to analyze the area of kidney fibrosis and the percentage of the fibrosis area in the scanning area was calculated.
# [4] = 4 weeks, CS27109 10 mg/kg twice a day
# [5] = serum after 4 weeks, CS27109 10 mg/kg, gavage twice a day, mean ± SD
# [6] = CS17919 10 and 60 mg/kg, GS-4997 30 mg/kg, gavage twice daily, 11 days
# CYP 2C8, sequence (P10632 whole entry): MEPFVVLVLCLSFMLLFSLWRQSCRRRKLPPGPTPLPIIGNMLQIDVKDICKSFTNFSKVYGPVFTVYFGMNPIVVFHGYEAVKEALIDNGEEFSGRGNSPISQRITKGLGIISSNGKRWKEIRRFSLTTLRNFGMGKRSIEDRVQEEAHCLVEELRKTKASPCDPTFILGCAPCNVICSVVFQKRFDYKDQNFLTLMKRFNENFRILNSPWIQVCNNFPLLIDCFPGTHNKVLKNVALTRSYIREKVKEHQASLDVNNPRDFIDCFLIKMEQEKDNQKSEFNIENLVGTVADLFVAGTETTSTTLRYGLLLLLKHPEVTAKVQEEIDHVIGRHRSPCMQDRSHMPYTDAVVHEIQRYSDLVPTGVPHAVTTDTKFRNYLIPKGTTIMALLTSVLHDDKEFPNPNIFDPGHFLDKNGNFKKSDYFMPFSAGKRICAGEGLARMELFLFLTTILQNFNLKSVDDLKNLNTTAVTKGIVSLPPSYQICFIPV
# CYP3A4, sequence (P08684 whole entry): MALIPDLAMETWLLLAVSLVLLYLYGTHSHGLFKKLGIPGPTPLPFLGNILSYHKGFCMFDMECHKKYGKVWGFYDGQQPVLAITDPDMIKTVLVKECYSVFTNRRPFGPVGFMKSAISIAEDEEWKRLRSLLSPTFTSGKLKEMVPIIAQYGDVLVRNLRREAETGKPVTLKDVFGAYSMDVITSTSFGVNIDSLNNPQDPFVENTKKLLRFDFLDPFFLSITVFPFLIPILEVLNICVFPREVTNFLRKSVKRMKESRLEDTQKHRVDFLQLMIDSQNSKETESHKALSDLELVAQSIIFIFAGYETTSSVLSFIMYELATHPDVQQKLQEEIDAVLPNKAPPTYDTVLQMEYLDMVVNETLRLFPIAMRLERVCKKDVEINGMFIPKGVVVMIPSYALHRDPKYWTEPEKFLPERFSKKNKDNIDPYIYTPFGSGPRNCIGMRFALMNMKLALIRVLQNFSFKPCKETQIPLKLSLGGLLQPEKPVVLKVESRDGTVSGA
structure (smiles),measurement,setting,value
Cc1cc(F)c(C(=O)Nc2cccc(-c3nncn3[C@H](C)C(F)(F)F)n2)cc1NC(=O)C1CC1 [CS17919],Cytotoxicity (cell viability),HUH7,barely affected cell viability
same,Occurrence of hepatocellular carcinoma (mice affected/group),NASH mouse model [1],3/8
same,Liver fibrosis area (Sirius Red staining),NASH mouse model [2]; [4],significantly reduced
same,Liver inflammation score (H&E),NASH mouse model [2]; [4],tended to improve
same,Liver steatosis and ballooning scores (H&E),NASH mouse model [2]; [4],barely improved
same,ALT,NASH mouse model [2]; [5],120.9 ± 80.3^a U/L
same,AST,NASH mouse model [2]; [5],193.3 ± 110.1 U/L
same,HDL‐C,NASH mouse model [2]; [5],0.604 ± 0.231 mmol/L
same,LDL‐C,NASH mouse model [2]; [5],0.054 ± 0.028^a mmol/L
same,TC,NASH mouse model [2]; [5],0.719 ± 0.251 mmol/L
same,TG,NASH mouse model [2]; [5],0.223 ± 0.106 mmol/L
same,Cytotoxicity (cell viability),CCC‐HEL‐1,barely affected cell viability
same,IC50,CYP 2C8,> 10 µM
same,T1/2 in liver microsomes,[3],>145 min
same,IC50,CYP3A4,> 10 µM
same,Area of kidney fibrosis (Masson staining),UUO mouse model; [6],tendency to reduce
same,Serum creatinine vs model group,UUO mouse model; [6],non‐significant tendency to decrease
same,Serum urea nitrogen vs model group,UUO mouse model; [6],significantly reduced
same,Inflammatory infiltration and interstitial fibrosis scores (H&E),"UUO mouse model; CS17919 high-dose group (60 mg/kg twice daily, 11 days)",improved significantly
